ChEMBL document CHEMBL1909046, “DrugMatrix in vitro pharmacology data”

How the values were obtained:
Cytochrome P450 1A2 = target: T1, Cytochrome P450 1A2 (Homo sapiens, UniProt P05177); conditions: bti-tn-5b1-4
T1 sequence (P05177 whole entry): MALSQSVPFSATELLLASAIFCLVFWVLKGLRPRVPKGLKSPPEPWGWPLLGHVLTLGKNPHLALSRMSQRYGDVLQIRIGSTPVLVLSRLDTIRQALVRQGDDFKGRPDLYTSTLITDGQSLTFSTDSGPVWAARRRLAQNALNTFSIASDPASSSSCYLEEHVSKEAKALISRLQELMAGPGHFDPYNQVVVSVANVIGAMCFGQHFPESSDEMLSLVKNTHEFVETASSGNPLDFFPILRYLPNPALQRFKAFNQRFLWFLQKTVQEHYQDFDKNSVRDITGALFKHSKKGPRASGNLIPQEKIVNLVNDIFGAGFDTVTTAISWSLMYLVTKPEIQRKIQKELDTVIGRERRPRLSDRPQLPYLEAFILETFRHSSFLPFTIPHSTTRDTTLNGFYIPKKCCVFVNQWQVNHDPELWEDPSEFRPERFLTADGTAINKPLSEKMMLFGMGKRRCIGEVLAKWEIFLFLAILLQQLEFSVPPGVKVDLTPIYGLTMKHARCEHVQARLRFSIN

Cytochrome P450 2A6 = target: T2, Cytochrome P450 2A6 (Homo sapiens, UniProt P11509); conditions: bti-tn-5b1-4
T2 sequence (P11509 whole entry): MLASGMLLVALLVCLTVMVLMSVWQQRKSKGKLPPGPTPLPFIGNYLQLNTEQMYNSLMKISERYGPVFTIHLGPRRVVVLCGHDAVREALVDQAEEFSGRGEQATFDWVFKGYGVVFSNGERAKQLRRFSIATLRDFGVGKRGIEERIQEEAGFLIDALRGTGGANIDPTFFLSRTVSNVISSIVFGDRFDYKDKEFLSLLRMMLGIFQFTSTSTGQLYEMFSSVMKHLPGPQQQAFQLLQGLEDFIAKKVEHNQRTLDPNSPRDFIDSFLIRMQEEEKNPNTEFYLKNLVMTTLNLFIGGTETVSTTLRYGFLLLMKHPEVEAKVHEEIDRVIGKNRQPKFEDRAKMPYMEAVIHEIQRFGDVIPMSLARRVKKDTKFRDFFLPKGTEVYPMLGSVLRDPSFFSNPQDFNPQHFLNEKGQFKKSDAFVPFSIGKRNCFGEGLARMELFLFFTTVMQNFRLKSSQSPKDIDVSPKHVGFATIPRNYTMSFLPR

Cytochrome P450 2C19 = Cytochrome P450 2C19 (Homo sapiens, UniProt P33261); conditions: bti-tn-5b1-4
Cytochrome P450 2C9 = Cytochrome P450 2C9 (Homo sapiens, UniProt P11712); conditions: bti-tn-5b1-4
Cytochrome P450 2D6 = Cytochrome P450 2D6 (Homo sapiens, UniProt P10635); conditions: bti-tn-5b1-4
Cytochrome P450 2E1 = Cytochrome P450 2E1 (Homo sapiens, UniProt P05181); conditions: bti-tn-5b1-4
Cytochrome P450 3A4 = Cytochrome P450 3A4 (Homo sapiens, UniProt P08684); conditions: bti-tn-5b1-4
[1] = target: Voltage-gated inwardly rectifying potassium channel KCNH2 (Homo sapiens, UniProt Q12809); conditions: hek293
Also: in other assays of this panel Not Active means under 50% inhibition at 10 µM.

Cytochrome P450 2E1, sequence (P05181 whole entry): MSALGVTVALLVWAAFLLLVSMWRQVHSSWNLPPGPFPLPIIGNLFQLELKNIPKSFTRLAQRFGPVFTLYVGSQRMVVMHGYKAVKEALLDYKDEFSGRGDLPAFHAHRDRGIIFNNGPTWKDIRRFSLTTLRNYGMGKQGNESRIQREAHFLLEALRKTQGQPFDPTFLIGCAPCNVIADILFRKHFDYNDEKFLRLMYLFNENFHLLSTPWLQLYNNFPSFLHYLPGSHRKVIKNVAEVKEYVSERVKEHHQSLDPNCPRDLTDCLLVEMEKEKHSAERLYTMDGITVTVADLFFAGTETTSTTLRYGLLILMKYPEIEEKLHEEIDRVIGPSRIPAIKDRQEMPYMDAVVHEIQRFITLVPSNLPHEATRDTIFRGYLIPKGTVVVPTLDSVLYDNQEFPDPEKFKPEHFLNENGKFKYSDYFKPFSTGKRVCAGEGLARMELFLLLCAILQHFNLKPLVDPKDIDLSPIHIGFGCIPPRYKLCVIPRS
Cytochrome P450 2C9, sequence (P11712 whole entry): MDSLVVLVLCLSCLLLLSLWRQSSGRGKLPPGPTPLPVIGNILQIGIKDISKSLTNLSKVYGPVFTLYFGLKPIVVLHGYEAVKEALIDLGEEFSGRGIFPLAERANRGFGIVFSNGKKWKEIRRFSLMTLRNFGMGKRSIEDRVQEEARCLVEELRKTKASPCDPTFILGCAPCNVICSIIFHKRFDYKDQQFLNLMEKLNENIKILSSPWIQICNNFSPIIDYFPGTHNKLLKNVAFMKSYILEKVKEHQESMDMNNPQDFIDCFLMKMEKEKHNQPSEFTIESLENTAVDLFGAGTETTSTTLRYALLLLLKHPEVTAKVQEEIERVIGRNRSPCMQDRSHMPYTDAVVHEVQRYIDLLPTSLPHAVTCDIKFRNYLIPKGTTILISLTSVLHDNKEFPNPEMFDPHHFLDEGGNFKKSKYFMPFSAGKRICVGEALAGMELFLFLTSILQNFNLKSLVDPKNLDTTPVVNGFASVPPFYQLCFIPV
Cytochrome P450 2D6, sequence (P10635 whole entry): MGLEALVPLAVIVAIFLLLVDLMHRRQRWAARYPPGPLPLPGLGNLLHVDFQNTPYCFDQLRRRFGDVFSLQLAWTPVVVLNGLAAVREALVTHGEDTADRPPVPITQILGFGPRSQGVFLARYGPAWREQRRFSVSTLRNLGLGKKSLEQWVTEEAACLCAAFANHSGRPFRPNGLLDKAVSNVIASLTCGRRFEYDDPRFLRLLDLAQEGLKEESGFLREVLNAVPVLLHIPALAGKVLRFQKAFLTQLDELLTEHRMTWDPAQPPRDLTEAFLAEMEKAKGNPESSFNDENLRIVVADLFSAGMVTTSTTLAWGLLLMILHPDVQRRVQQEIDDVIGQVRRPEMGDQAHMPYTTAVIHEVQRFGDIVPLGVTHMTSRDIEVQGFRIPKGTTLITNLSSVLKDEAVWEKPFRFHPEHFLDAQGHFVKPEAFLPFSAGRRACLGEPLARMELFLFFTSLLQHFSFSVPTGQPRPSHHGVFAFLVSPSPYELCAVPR
Voltage-gated inwardly rectifying potassium channel KCNH2, sequence (Q12809 whole entry): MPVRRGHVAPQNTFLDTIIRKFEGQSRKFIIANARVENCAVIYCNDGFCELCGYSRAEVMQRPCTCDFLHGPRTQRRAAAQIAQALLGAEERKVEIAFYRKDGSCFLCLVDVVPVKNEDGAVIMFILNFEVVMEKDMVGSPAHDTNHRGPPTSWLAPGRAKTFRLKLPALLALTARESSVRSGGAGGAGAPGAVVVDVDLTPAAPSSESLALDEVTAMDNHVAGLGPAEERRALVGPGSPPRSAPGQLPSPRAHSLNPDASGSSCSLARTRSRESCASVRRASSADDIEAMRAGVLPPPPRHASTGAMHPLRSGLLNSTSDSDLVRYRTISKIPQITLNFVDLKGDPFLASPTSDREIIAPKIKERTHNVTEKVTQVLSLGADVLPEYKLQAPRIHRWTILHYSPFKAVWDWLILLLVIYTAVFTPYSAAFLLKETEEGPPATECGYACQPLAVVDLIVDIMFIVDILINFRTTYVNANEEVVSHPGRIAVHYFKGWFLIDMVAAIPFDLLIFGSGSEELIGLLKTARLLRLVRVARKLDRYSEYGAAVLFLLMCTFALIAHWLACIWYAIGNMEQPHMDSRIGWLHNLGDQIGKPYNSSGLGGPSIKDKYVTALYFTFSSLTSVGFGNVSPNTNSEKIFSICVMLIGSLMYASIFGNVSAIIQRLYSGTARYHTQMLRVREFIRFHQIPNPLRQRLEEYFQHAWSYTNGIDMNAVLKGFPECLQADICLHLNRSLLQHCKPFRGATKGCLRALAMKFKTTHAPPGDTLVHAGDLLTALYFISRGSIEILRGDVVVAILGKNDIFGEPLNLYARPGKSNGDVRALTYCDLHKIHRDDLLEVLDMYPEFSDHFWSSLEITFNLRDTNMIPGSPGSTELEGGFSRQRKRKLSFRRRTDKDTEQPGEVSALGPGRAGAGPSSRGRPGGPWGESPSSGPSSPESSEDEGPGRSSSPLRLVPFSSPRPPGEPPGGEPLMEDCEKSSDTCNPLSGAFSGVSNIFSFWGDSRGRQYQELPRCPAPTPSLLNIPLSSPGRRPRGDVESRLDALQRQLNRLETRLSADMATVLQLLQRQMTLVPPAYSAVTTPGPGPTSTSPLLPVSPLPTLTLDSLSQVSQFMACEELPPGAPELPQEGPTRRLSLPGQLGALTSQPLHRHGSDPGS
Cytochrome P450 2C19, sequence (P33261 whole entry): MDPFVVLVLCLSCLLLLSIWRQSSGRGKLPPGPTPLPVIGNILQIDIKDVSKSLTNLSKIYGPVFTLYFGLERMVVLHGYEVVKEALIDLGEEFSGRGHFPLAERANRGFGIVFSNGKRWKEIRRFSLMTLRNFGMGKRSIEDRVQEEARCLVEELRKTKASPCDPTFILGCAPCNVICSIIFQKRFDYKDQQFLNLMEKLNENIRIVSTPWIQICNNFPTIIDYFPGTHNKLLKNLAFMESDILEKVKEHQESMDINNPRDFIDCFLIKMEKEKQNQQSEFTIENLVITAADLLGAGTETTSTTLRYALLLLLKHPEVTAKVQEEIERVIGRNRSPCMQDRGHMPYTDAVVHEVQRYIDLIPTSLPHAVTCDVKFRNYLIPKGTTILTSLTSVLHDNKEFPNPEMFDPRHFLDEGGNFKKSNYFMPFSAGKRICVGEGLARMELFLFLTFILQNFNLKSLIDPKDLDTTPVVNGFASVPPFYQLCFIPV
Cytochrome P450 3A4, sequence (P08684 whole entry): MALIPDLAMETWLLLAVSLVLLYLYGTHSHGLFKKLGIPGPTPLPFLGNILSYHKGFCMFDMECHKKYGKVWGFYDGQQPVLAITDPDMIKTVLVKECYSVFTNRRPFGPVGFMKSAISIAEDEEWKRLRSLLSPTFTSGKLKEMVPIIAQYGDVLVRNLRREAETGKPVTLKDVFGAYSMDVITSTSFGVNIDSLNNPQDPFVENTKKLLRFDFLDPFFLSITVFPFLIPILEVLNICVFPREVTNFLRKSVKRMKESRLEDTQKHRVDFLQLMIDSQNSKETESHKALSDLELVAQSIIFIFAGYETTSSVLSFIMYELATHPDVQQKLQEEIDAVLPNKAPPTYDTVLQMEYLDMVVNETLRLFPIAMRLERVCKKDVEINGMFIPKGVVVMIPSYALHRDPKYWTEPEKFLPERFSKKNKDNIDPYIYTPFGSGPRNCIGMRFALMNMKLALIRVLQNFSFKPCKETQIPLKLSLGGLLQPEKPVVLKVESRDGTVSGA

CC=Cc1ccc(O)c(OC)c1 [ISOEUGENOL]
Not Active: IC50 (Cytochrome P450 1A2) | Ki (Cytochrome P450 1A2) | IC50 (Cytochrome P450 2A6) | Ki (Cytochrome P450 2A6) | IC50 (Cytochrome P450 2C19) | Ki (Cytochrome P450 2C19) | IC50 (Cytochrome P450 2C9) | Ki (Cytochrome P450 2C9) | IC50 (Cytochrome P450 2D6) | Ki (Cytochrome P450 2D6) | IC50 (Cytochrome P450 2E1) | Ki (Cytochrome P450 2E1) | IC50 (Cytochrome P450 3A4) | Ki (Cytochrome P450 3A4) | IC50 [1] | Ki [1]
